“Also recorded” adds a separate entry of the source.
Assays:
[1] = tested on: proteasome; details: role: inhibitor; cited from earlier work
[2] = tested on: X. indica ΔrpmM-O mutant with vector expressing rpmO (strain IX); details: 3,4-AHBA and IPTG; compared to empty vector control
Protocol: (§1) Addition of the inducer and benzoic acid was added from the start. The numbering I-IX corresponds to the strains in FIG. 12. A: growth of strain I culture with and without induction (1 mM IPTG), with and without addition of 3,4-AHBA. B: growth of strain V culture with and without induction, with and without addition of 3,4-AHBA. C: growth of strain I culture with and without induction, with and without addition of 3,4-DHBA. D: growth of strain V culture with and without induction, with and without addition of 3,4-DHBA. E: growth of induced and 3,4-AHBA supplemented strain VIII culture with vector expressing rpmMN or empty expression vector. F: growth of induced and 3,4-AHBA supplemented strain IX culture with vector expressing rpmO or empty expression vector.
(§2) Which of the rpmM-O genes are responsible for resistance to the biosynthesis product of the rpm BGC was the question addressed in the following studies. […] The influence of the vector was excluded by conjugating an empty vector into the strains as a control. […] Production of rupshomycins were performed in XPP3 medium with 2% (v/v) XAD-16 for in situ extraction.

[3] = tested on: X. indica ΔrpmM-O mutant with vector expressing rpmM and rpmN (strain VIII); details: 3,4-AHBA and IPTG; compared to empty vector control
Protocol: as §1, §2

[4] = tested on: X. indica ΔrpmM-O mutant with empty vector; details: 3,4-AHBA and IPTG; empty vector control
Protocol: as §1, §2

[5] = tested on: X. indica ΔrpmM-O mutant (strain VII); assay: Growth curve of X. indica ΔrpmM-O mutant (strain VII) with fed benzoic acid derivative; assay type: cell-based, Xenorhabdus indica
Protocol: To elucidate the influence of rpmM-O on biosynthesis, they were deleted together bases on pAR20 with the synthetic dsDNA fragments used for CRISPR/Cas12 mediated genome editing specific HA-L and R SEQ ID NOs 177-178 The resulting mutant ΔrpmM-O was then analysed for production and growth. Also with the addition of 3,4-AHBA, no growth and thus no production could be observed (FIG. 12 VII).
(§3) In order to analyze the growth curve, the strains were cultured in microtiter plates in a Tecan Spark microplate reader (FIG. 14). A comparison was initially made between strain V and strain VII with and without the addition of 3,4-AHBA (FIGS. 14 A and B). Furthermore, to investigate the sole effect of 3,4-AHBA on the cells, 3,4-AHBA was added to the cells in presence or not of the rpm BGC inducer IPTG (FIGS. 14A and B). […] Subsequently, in order to investigate the effect of the amino group on the benzoic acid, 3,4-DHBA was fed to both strains (FIGS. 14 C and D). […] It can therefore be concluded that the amino group is crucial for the bioactivity of rupshomycin.

[6] = tested on: X. indica strain V; assay: Growth curve of X. indica strain V with fed benzoic acid derivative; assay type: cell-based, Xenorhabdus indica; details: with and without 3,4-AHBA, in presence or not of IPTG
Protocol: as §3

## CCCCCCC/C=C/C=C/C(=O)N[C@H](C(=O)N[C@H]1C[C@@H](O)CCNC(=O)/C=C/[C@H](C)NC1=O)[C@@H](C)O [glidobactin A]
[1]
  proteasome inhibition: potent proteasome inhibitors

## Nc1cc(C(=O)O)ccc1O [3,4-AHBA, 3-amino-4-hydroxy benzoic acid]
[2]
  growth: no significant growth of the culture was observed compared to the empty vector control
[3]
  growth: significant growth of the culture compared to the empty vector control
[4]
  growth: severe growth defect of the culture
[5]; 3,4-AHBA fed, rpm BGC induced, 96 well microtiter plate, 24 hours
  growth: culture dies after induction; also recorded: no growth; also recorded: a weak growth was observed in the first 3 hours, which then quickly collapsed and fell below the optical density of the starting point of the experiment
[6]
  growth: no particular growth differences were observed

## O=C(O)c1ccc(O)c(O)c1 [3,4-DHBA]
[5]; 3,4-DHBA fed, induced vs non-induced culture
  growth: did not lead to the complete death of the ΔrpmM-O culture, but to a growth deficiency compared to the non-induced culture

## CC(C)CCCCC/C=C/C=C/C(=O)N[C@H](C(=O)N[C@H]1CC(O)CCNC(=O)/C=C/C(C)NC1=O)[C@@H](C)O (some centres unmarked) [cepafungin I]
[1]
  proteasome inhibition: potent proteasome inhibitors

— US20260297627A1, “MODULATION OF GLOBAL REGULATORY MECHANISMS AND BIOSYNTHETIC GENE CLUSTERS FOR SIMPLIFIED PRODUCTION OF NATURAL PRODUCTS” (priority 2023, published 2026)
